# Reference: ChEMBL document CHEMBL6115007, “Synthesis and in vitro and in vivo evaluation of novel bivalent quinolines as antitumor agents via targeting autophagy in cervical cancer” (Eur J Med Chem, 2025)
# Active and inactive are the calls of the source. The rule behind the calls is not given here.
# How the values were obtained:
# [1] = tested on: HeLa; assay: Antiproliferative activity against human HeLa cells assessed as inhibition of cell viability incubated for 24 hrs by CCK8 assay; format: functional, cell-based
# [2] = tested on: Ca-Ski; assay: Inhibition of cell migration in human Ca Ski cells at 0.5 to 1.0 uM measured after 48 hrs by cell scratch assay; format: functional, cell-based; conditions: dose 0.5-1 µM
# [3] = tested on: HeLa; assay: Inhibition of cell migration in human HeLa cells at 0.6 to 1.2 uM measured after 24 hrs by transwell migration assay; format: functional, cell-based; conditions: dose 0.6-1.2 µM
# [4] = tested on: Ca-Ski; assay: Induction of morphological changes in human Ca Ski cells assessed as increase in inflated cell appearance at 0.5 to 2 uM by microphotographic analysis; format: functional, cell-based; conditions: dose 0.5-2 µM
# [5] = tested on: C-33-A; assay: Induction of morphological changes in human C-33-A cells assessed as increase in inflated cell appearance at 0.3 to 1.2 uM by microphotographic analysis; format: functional, cell-based; conditions: dose 0.3-1.2 µM
# [6] = tested on: HeLa; assay: Induction of apoptosis in human HeLa cells assessed as late apoptotic cells at 0.6 uM incubated for 24 hrs by Annexin V-FITC/PI staining based flow cytometric analysis (reference value: 0.94 %); format: functional
# [7] = tested on: HeLa; assay: Induction of apoptosis in human HeLa cells assessed as early apoptotic cells at 1.2 uM incubated for 24 hrs by Annexin V-FITC/PI staining based flow cytometric analysis (reference value: 0.97 %); format: functional
# [8] = tested on: HeLa; assay: Induction of apoptosis in human HeLa cells assessed as late apoptotic cells at 1.2 uM incubated for 24 hrs by Annexin V-FITC/PI staining based flow cytometric analysis (reference value: 0.94 %); format: functional
# [9] = tested on: HeLa; assay: Induction of apoptosis in human HeLa cells assessed as viable cells at 0.6 uM preincubated with Z-VAD-FMK for 1 hrs followed by compound addition and measured after 24 hrs by Annexin V-FITC/PI staining based flow cytometric analysis (reference value: 95.8 %); format: functional; conditions: read-out: Activity
# [10] = tested on: HeLa; assay: Induction of apoptosis in human HeLa cells assessed as necrotic cells at 1.2 uM preincubated with Z-VAD-FMK for 1 hrs followed by compound addition and measured after 24 hrs by Annexin V-FITC/PI staining based flow cytometric analysis (reference value: 2.16 %); format: functional
# [11] = tested on: Ca-Ski; assay: Induction of apoptosis in human Ca Ski cells assessed as viable cells at 0.5 uM incubated for 24 hrs by Annexin V-FITC/PI staining based flow cytometric analysis (reference value: 86.8 %); format: functional; conditions: read-out: Activity
# [12] = tested on: Ca-Ski; assay: Induction of apoptosis in human Ca Ski cells assessed as early apoptotic cells at 1 uM incubated for 24 hrs by Annexin V-FITC/PI staining based flow cytometric analysis (reference value: 4.76 %); format: functional
# [13] = tested on: Ca-Ski; assay: Induction of apoptosis in human Ca Ski cells assessed as late apoptotic cells at 1 uM incubated for 24 hrs by Annexin V-FITC/PI staining based flow cytometric analysis (reference value: 5.33 %); format: functional
# [14] = tested on: Ca-Ski; assay: Induction of apoptosis in human Ca Ski cells assessed as early apoptotic cells at 0.5 uM preincubated with Z-VAD-FMK for 1 hrs followed by compound addition and measured after 24 hrs by Annexin V-FITC/PI staining based flow cytometric analysis (reference value: 2.91 %); format: functional
# [15] = tested on: Ca-Ski; assay: Induction of apoptosis in human Ca Ski cells assessed as necrotic cells at 1 uM preincubated with Z-VAD-FMK for 1 hrs followed by compound addition and measured after 24 hrs by Annexin V-FITC/PI staining based flow cytometric analysis (reference value: 1.54 %); format: functional
# [16] = tested on: Ca-Ski; assay: Effect on caspase 3 expression level in human Ca Ski cells at 0.25 to 1 uM incubated for 24 hrs by Western blot analysis; format: functional, cell-based; conditions: dose 0.25-1 µM
# [17] = tested on: HeLa; assay: Effect on PARP expression level in p53 deficient human HeLa cells at 0.6 to 1.2 uM incubated for 24 hrs by Western blot analysis; format: functional, cell-based; conditions: dose 0.6-1.2 µM
# [18] = tested on: HeLa; assay: Effect on cleaved PARP expression level in p53 deficient human HeLa cells at 0.6 to 1.2 uM incubated for 24 hrs by Western blot analysis; format: functional, cell-based; conditions: dose 0.6-1.2 µM
# [19] = tested on: HeLa; assay: Effect on PARP expression level in Bax deficient human HeLa cells at 0.6 to 1.2 uM incubated for 24 hrs by Western blot analysis; format: functional, cell-based; conditions: dose 0.6-1.2 µM
# [20] = tested on: Ca-Ski; assay: Effect on cleaved PARP expression level in p53 deficient human Ca Ski cells at 0.5 to 1 uM incubated for 24 hrs by Western blot analysis; format: functional, cell-based; conditions: dose 0.5-1 µM
# [21] = tested on: Ca-Ski; assay: Effect on cleaved PARP expression level in Bax deficient human Ca Ski cells at 0.5 to 1 uM incubated for 24 hrs by Western blot analysis; format: functional, cell-based; conditions: dose 0.5-1 µM
# [22] = tested on: Ca-Ski; assay: Effect on cleaved caspase 3 expression level in Bax deficient human Ca Ski cells at 0.5 to 1 uM incubated for 24 hrs by Western blot analysis; format: functional, cell-based; conditions: dose 0.5-1 µM
# [23] = tested on: HeLa; assay: Induction of ferroptosis in human HeLa cells assessed as increase in lipid ROS level by measuring rightward shift in fluorescence intensity at 0.6 uM measured after 24 hrs by C11-BODIPY-581/591 staining based flow cytometric analysis; format: functional, cell-based
# [24] = tested on: HeLa; assay: Effect on ACSL4 protein expression level in human HeLa cells at 0.6 uM incubated for 24 hrs by Western blot analysis; format: functional, cell-based
# [25] = tested on: Ca-Ski; assay: Effect on ACSL4 protein expression level in human Ca Ski cells at 0.5 uM incubated for 24 hrs by Western blot analysis; format: functional, cell-based
# [26] = tested on: Ca-Ski; assay: Effect on SLC7A11 protein expression level in human Ca Ski cells at 0.5 uM incubated for 24 hrs by Western blot analysis; format: functional, cell-based
# [27] = tested on: Ca-Ski; assay: Induction of autophagolysosome formation in human Ca Ski cells transfected with mRFP-GFP-LC3 plasmid assessed as increase in ratio of mRFP to GFP puncta at 0.3 to 0.6 uM incubated for 24 hrs; format: functional, cell-based; conditions: dose 0.3-0.6 µM
# [28] = tested on: HeLa; assay: Induction of autophagy in human HeLa cells assessed as increase in p62 level at 0.3 to 1.2 microM incubated for 24 hrs by Western blot analysis; format: functional, cell-based; conditions: dose 0.3-1.2 µM
# [29] = tested on: HeLa; assay: Upregulation of autophagy pathway related gene expression in human HeLa cells at 1.2 uM incubated for 24 hrs by GSVA enrichment analysis; format: functional, cell-based
# [30] = tested on: HeLa; assay: Induction of autophagy in human HeLa cells assessed as increase in ATG5 protein level at 0.6 to 1.2 uM incubated for 24 hrs by Western blot analysis; format: functional, cell-based; conditions: dose 0.6-1.2 µM
# [31] = tested on: HeLa; assay: Antiproliferative activity against ATG7 deficient human HeLa cells assessed as inhibition of cell viability incubated for 24 hrs by CCK8 assay; format: functional, cell-based
# [32] = tested on: HeLa; assay: Inhibition of colony formation in ATG7 deficient human HeLa cells at 0.15 to 0.6 uM incubated for 24 hrs by crystal violet staining based analysis; format: functional, cell-based; conditions: dose 0.15-0.6 µM
# [33] = Toxicity in female BALB/c mouse xenografted with human HeLa cells assessed as effect on body weight at 4 to 8 mg/kg administered every four days and measured after 26 days; format: organism-based; conditions: in vivo, 624 h, dose 4-8 mg/kg, time 26 day
# [34] = Toxicity in female BALB/c mouse xenografted with human HeLa cells assessed as effect on AST level at 4 to 8 mg/kg administered every four days and measured after 26 days; format: organism-based; conditions: in vivo, 624 h, dose 4-8 mg/kg, time 26 day
# [35] = Toxicity in female BALB/c mouse xenografted with human HeLa cells assessed as effect on RBC level at 4 to 8 mg/kg administered every four days and measured after 26 days; format: organism-based; conditions: in vivo, 624 h, dose 4-8 mg/kg, time 26 day
smiles,measurement,setting,value
COc1cccc(Nc2ccnc3cc(OCCCCCOc4ccc5c(Nc6cccc(OC)c6)ccnc5c4)ccc23)c1,Activity,[1],Dose-dependent-effect
same,IC50,[1],648 nM
same,inhibition,[2],Active
same,inhibition,[3],Active
same,Activity,[4],Active
same,Activity,[5],Active
same,Activity,[6],2.27%
same,Activity,[7],1.25%
same,Activity,[8],4.11%
same,viability at 0.6 µM,[9],94.9%
same,Activity,[10],1.49%
same,viability at 0.5 µM,[11],85.5%
same,Activity,[12],7.2%
same,Activity,[13],7.8%
same,Activity,[14],7.65%
same,Activity,[15],1.7%
same,Activity,[16],inactive
same,Activity,[17],inactive
same,Activity,[18],inactive
same,Activity,[19],inactive
same,Activity,[20],inactive
same,Activity,[21],inactive
same,Activity,[22],inactive
same,Activity,[23],inactive
same,Activity,[24],Moderate_effect
same,Activity,[25],Moderate_effect
same,Activity,[26],Moderate_effect
same,Activity,[27],Active
same,Activity,[28],Active
same,Activity,[29],Active
same,Activity,[30],Active
same,IC50,[31],2310 nM
same,inhibition,[32],Minimal_effect
same,Activity,[33],Non-toxic
same,Activity,[34],Non-toxic
same,Activity,[35],Non-toxic
